Three molecules from US12275731B2, “Azaindole inhibitors of wild-type and mutant forms of LRRK2” (DANA-FARBER CANCER INSTITUTE, INC., priority 2018, dated 2025) can be followed below.

Assay in all cases: KinomeScan profiling
Common to all, as to assay type: binding

One experiment deals with T1, BRSK1 (Homo sapiens, UniProt Q8TDC3).
T1 sequence (Q8TDC3 1-778): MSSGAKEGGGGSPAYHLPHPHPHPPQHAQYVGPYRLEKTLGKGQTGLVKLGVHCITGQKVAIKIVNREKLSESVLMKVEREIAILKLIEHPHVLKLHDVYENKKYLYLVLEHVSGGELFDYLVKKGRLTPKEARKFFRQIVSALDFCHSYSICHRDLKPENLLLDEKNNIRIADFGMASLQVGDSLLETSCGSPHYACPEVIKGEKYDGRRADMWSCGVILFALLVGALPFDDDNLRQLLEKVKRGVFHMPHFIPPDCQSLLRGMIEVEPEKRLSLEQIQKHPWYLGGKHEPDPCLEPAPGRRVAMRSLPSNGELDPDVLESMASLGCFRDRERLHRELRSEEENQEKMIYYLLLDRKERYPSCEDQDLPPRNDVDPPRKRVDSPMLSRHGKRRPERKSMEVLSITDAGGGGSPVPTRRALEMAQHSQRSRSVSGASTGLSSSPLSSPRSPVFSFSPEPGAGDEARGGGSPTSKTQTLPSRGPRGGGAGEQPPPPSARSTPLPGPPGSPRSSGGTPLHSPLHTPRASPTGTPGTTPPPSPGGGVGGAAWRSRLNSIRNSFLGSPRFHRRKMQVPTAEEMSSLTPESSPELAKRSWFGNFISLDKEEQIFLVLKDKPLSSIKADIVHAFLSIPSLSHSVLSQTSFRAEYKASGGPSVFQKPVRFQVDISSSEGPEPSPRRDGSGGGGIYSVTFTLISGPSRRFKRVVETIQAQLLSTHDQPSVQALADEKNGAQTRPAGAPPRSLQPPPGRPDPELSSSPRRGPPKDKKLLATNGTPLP
The following applies: BRSK1, 1 μM; read-out: % control. The gist of the method: (§1)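 Single-point competition binding screen: 1 μM, DMSO, 468 kinases. Results reported as % control from RLU, normalised to DMSO and positive-control wells. Activity threshold: <35% control.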

A further experiment has as its target CDKL3 (Homo sapiens, UniProt Q8IVW4). The following applies: CDKL3, 1 μM; read-out: % control. The gist of the method:
as §1

The target in a further experiment is T2, KIT (Homo sapiens, UniProt P10721).
T2 construct: purchased KinomeScan®
The settings on record: read-out: % control. The gist of the method:
as §1

Experiment [1] has as its target T3, JAK1(JH1domain-catalytic) (Homo sapiens, UniProt P23458).
T3 construct: JAK1(JH1domain-catalytic); purchased KinomeScan®
The settings on record: read-out: % control. The gist of the method: as §1

The next experiment concerns the target CLK4 (Homo sapiens, UniProt Q9HAZ1). The settings on record: CLK4, 1 μM; read-out: % control. The gist of the method: as §1
The target in a further experiment is HIPK2 (Homo sapiens, UniProt Q9H2X6). The settings on record: HIPK2, 1 μM; read-out: % control. The gist of the method: as §1
A further experiment has as its target CDK8 (Homo sapiens, UniProt P49336). The following applies: CDK8, 1 μM; read-out: % control. Put shortly: as §1
In another experiment the target is T4, BLK (Homo sapiens, UniProt P51451).
T4 construct: purchased KinomeScan®
The following applies: read-out: % control. Put shortly:
as §1

A further experiment has as its target TGFBR2 (Homo sapiens, UniProt P37173). The following applies: TGFBR2, 1 μM; read-out: % control. The gist of the method:
as §1

A further experiment addresses T5, IKK-alpha (Homo sapiens, UniProt O15111).
T5 sequence (O15111 1-745): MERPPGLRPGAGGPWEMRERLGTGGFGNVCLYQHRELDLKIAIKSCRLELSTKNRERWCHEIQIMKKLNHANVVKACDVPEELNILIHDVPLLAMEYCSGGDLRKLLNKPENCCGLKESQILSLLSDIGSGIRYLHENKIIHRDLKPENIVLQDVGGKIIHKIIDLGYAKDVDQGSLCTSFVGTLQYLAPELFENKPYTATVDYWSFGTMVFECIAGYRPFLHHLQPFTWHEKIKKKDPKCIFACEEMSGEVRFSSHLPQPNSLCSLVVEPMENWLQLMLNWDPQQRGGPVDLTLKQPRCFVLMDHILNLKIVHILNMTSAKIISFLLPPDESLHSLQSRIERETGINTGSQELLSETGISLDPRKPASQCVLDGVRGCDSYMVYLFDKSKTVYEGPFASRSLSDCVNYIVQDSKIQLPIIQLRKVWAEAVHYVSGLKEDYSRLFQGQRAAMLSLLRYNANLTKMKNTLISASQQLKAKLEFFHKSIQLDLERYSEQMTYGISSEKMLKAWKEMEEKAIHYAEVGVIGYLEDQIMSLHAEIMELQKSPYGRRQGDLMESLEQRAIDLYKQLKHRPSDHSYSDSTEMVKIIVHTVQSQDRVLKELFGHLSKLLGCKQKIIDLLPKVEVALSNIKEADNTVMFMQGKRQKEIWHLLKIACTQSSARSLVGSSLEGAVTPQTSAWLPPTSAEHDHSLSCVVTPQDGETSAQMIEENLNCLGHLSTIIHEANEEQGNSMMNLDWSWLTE
The settings on record: read-out: % control. The gist of the method:
as §1

For another experiment, the target named is CDC2L5 (Homo sapiens, UniProt Q14004). The following applies: CDC2L5, 1 μM; read-out: % control. The gist of the method:
as §1

Another experiment has as its target MAST1 (Homo sapiens, UniProt Q9Y2H9). The following applies: MAST1, 1 μM; read-out: % control. The gist of the method:
as §1

The next experiment concerns the target CLK3 (Homo sapiens, UniProt P49761). The following applies: CLK3, 1 μM; read-out: % control. The gist of the method: as §1
In another experiment the target is EIF2AK1 (Homo sapiens, UniProt Q9BQI3). The settings on record: EIF2AK1, 1 μM; read-out: % control. Put shortly: as §1

Structures are written as SMILES.

HIPK2, sequence (Q9H2X6 whole entry): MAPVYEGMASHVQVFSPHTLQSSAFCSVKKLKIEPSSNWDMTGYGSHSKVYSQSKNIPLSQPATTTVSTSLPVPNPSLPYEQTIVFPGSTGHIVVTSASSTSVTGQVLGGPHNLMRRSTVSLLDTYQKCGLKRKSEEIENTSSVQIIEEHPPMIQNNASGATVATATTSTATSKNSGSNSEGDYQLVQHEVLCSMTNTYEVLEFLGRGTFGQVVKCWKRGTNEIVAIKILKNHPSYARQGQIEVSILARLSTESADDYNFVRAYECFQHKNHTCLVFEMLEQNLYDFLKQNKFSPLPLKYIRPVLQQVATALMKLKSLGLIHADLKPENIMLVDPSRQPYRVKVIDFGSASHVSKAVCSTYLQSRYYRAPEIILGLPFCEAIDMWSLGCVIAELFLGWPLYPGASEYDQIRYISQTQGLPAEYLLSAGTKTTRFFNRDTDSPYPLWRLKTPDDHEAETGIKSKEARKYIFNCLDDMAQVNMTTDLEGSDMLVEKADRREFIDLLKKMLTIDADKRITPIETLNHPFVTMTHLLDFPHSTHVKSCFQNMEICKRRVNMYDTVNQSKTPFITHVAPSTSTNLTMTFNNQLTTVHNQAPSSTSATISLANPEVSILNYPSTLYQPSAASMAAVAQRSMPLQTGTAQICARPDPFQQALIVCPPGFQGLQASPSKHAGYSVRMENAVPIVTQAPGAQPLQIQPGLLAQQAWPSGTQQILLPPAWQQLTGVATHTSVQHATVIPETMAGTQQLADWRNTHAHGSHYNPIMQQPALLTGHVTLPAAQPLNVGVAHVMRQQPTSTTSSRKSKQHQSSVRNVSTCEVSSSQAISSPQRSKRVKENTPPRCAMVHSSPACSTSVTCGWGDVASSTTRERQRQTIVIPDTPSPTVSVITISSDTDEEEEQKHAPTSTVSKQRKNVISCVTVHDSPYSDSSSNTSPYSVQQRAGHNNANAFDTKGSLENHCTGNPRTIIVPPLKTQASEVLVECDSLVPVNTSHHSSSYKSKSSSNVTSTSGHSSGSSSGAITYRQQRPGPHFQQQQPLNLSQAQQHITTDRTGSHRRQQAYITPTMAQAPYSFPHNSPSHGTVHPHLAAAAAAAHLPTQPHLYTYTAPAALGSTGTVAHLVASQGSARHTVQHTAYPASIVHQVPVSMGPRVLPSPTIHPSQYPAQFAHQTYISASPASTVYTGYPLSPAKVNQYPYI
CDK8, sequence (P49336 whole entry): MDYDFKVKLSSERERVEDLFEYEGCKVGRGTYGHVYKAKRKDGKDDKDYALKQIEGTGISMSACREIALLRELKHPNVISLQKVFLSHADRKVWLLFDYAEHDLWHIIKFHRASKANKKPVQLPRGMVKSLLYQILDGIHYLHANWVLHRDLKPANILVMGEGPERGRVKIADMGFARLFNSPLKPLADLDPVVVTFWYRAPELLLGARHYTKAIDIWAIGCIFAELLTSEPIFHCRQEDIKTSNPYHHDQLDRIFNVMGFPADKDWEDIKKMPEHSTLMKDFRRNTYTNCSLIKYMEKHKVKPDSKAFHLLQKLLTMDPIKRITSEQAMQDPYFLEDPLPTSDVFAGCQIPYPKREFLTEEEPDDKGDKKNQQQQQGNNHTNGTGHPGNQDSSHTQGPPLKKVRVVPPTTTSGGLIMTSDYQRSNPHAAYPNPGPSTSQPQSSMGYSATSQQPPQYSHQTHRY
T3 sequence (P23458 875-1153 limits assumed): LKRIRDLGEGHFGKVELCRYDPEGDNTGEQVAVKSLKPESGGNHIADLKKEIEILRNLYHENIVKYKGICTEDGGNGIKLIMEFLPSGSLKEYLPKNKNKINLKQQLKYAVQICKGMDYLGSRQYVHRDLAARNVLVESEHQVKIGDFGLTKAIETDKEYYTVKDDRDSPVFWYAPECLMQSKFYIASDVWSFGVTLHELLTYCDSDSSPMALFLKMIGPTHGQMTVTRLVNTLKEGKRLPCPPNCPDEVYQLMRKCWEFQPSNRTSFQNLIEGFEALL
CLK3, sequence (P49761 whole entry): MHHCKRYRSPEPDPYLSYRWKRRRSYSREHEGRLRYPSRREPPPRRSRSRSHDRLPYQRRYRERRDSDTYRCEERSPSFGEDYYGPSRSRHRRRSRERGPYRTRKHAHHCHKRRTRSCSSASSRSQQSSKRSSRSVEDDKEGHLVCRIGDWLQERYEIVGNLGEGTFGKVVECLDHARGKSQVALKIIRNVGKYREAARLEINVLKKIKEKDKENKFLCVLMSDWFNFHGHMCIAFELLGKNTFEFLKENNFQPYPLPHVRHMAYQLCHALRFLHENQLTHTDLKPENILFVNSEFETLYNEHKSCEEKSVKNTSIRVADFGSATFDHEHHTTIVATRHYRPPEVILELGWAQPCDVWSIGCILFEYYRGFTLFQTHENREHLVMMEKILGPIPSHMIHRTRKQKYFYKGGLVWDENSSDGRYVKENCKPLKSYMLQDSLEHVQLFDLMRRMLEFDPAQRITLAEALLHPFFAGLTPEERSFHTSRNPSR
T4 sequence (P51451 whole entry): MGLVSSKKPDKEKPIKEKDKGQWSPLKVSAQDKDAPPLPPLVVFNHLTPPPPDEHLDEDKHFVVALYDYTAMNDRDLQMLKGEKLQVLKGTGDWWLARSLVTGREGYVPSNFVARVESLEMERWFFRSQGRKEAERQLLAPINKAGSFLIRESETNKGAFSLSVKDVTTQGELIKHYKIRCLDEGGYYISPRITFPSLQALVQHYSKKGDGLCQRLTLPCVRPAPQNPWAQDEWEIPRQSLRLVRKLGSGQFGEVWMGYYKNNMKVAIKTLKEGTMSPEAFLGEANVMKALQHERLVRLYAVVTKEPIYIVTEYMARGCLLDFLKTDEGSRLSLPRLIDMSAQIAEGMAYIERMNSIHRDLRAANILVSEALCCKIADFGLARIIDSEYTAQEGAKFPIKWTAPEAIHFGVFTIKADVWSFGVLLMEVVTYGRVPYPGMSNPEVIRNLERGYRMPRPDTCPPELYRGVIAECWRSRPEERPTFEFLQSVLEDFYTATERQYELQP
MAST1, sequence (Q9Y2H9 whole entry): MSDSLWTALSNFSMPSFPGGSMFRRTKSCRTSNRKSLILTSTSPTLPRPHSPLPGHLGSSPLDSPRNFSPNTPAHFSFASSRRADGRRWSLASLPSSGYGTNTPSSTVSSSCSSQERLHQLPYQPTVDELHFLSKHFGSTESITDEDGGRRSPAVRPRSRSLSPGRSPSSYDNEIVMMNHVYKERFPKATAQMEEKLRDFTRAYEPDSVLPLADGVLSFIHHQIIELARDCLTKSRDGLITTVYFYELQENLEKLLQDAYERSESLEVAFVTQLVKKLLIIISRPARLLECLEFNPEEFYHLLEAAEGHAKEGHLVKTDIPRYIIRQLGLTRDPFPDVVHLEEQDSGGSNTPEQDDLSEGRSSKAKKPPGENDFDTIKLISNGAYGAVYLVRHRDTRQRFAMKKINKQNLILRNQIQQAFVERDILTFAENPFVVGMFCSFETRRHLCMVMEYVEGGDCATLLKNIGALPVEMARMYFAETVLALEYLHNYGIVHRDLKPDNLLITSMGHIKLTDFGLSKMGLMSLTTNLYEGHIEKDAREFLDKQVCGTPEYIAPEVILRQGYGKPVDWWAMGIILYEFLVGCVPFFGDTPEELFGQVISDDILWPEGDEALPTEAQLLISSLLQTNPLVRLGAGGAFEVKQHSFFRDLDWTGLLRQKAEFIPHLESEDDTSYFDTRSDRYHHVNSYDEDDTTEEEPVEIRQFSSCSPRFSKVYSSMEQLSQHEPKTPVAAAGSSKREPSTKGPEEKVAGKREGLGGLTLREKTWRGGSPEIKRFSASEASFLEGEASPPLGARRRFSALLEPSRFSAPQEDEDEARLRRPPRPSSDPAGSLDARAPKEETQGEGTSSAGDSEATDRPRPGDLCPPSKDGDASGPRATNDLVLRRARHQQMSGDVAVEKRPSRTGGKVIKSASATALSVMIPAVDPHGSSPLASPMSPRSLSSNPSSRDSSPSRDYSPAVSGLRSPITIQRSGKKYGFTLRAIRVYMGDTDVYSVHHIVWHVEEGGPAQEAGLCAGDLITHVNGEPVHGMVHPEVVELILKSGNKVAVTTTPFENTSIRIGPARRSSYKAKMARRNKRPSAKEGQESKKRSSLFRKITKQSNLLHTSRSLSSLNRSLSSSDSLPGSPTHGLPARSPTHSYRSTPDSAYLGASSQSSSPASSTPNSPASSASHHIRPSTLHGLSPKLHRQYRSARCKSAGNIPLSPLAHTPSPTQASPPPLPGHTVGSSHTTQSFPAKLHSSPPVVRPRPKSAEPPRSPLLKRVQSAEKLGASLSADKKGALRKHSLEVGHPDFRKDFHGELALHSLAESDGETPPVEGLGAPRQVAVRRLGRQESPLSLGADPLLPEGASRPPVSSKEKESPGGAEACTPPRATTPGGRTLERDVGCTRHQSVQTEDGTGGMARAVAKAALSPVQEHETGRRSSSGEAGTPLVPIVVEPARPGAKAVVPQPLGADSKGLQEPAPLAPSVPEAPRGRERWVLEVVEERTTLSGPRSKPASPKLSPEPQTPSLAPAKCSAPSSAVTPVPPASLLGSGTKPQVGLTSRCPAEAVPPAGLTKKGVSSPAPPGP
CLK4, sequence (Q9HAZ1 whole entry): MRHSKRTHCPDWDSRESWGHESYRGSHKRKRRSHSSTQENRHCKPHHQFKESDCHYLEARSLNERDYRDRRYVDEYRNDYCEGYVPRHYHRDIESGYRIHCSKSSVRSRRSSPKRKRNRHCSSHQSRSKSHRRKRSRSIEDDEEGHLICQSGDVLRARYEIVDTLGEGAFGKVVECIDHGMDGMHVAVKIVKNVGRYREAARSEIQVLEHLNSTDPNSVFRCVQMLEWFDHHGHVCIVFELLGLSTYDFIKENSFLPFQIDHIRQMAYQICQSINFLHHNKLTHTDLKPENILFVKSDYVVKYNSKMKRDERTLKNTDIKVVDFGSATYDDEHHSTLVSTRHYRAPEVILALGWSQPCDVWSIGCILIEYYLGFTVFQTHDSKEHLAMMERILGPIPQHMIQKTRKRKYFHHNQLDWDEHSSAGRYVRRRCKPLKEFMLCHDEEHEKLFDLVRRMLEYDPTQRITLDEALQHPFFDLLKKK

Consider `CNc1c(-c2ccc(C(=O)N3CCC(N4CCOCC4)CC3)cc2)cnc2[nH]cc(Cl)c12` [Compound 96, (4-(3-chloro-4-(methylamino)-1H-pyrrolo[2,3-b]pyridin-5-yl)phenyl)(4-morpholinopiperidin-1-yl)methanone], for which the remaining binding at 1 µM was 100% at BRSK1; 100% at CDKL3; 11% on KIT; 100% in experiment [1]; 11% on CLK4; 74% on HIPK2. For the same molecule, the remaining binding at 1 µM at CDK8 is 82%; at BLK, 100%; on TGFBR2, 100%; at IKK-alpha it was 14%; on CDC2L5 it was 100%; at MAST1, 24%. Further, the values for the remaining binding at 1 µM on CLK3 and on EIF2AK1 were 98% and 100%, respectively.

For `O=C(c1ccc(-c2cnc3[nH]cc(Cl)c3c2NC2CCCC2)cc1)N1CCC(N2CCOCC2)CC1` [Compound 101, (4-(3-chloro-4-(cyclopentylamino)-1H-pyrrolo[2,3-b]pyridin-5-yl)phenyl)(4-morpholinopiperidin-1-yl)methanone], the remaining binding at 1 µM was found to be 100% at BRSK1; 100% at CDKL3; 58% on KIT; 90% in experiment [1]; 42% on CLK4; 100% on HIPK2. Besides, the remaining binding at 1 µM came out at 59% on CDK8; 100% on BLK; 100% at TGFBR2; 49% on IKK-alpha; 2.1% on CDC2L5; 70% on MAST1. The remaining binding at 1 µM on CLK3 is 97%; on EIF2AK1 it was 100%.

Take `CNc1c(-c2cnn([C@H]3CCN(C(C)=O)C[C@@H]3F)c2)cnc2[nH]cc(Cl)c12` [Compound 77, 1-((3S,4S)-4-(4-(3-chloro-4-(methylamino)-1H-pyrrolo[2,3-b]pyridin-5-yl)-1H-pyrazol-1-yl)-3-fluoropiperidin-1-yl)ethan-1-one]: the remaining binding at 1 µM worked out at 100% at BRSK1; 94% at CDKL3; 4.8% at KIT; 98% in experiment [1]; 72% at CLK4; 81% on HIPK2. Further, the remaining binding at 1 µM is 100% on CDK8; 100% on BLK; 100% on TGFBR2; 17% at IKK-alpha; 100% on CDC2L5; 50% at MAST1. For the same molecule, the remaining binding at 1 µM at CLK3 came out at 88%; at EIF2AK1 it was 100%.
